Earlier results, collected in patent US20160115147A1, “PRO-DRUG COMPOUNDS” (Proximagen Limited, priority 2013, published 2016).

How the values were obtained:
[1] = tested on: unique stereo-selective site in human brain
[2] = tested on: unique stereo-selective site in rat brain

binding affinity to unique stereo-selective site [1]: high affinity
binding affinity to unique stereo-selective site [2]: high affinity
SMILES: CC(=O)c1ccc2c(c1)[C@H](NC(=O)c1ccc(F)c(Cl)c1)[C@H](O)C(C)(C)O2 [Tonabersat]
